# From patent US20190002988A1, “METHOD OF USING A RET FUSION GENE AS A BIOMARKER TO SELECT NON SMALL CELL LUNG CANCER (NSCLC) AND THYROID CANCER PATIENTS FOR A CANCER TREATMENT” (Boehringer Ingelheim International GmbH, priority 2015, published 2019)
# Columns and labels:
# [1] = system: EGFR and ALK wild-type advanced NSCLC with CCDC6-RET fusion gene; assay: Phase I case study, docetaxel plus nintedanib in a patient with CCDC6-RET fusion NSCLC; type: in vivo, human; conditions: one patient
# Description: The present study is a case study of long-term efficacy of docetaxel plus nintedanib (BIBF 1120; 3-Z-[1-(4-(N-((4-methyl-piperazin-1-yl)-methylcarbonyl)-N-methyl-amino)-anilino)-1-phenyl-methylene]-6-methoxycarbonyl-2-indolinone) over 33 months in a never smoking person with EGFR and ALK wild-type non-small cell lung cancer NSCLC.
# The present case was a never smoking person with EGFR and ALK wild-type advanced NSCLC. After failure of first-line platinum-based chemotherapy, the patient was enrolled in a phase I dose-escalation study of nintedanib combined with docetaxel for Japanese patients with advanced NSCLC on June, 2010, with oral administration of nintedanib 150 mg twice daily plus docetaxel 75 mg/m^2 every 3 weeks (Okamoto I, Kaneda H, Satoh T et al. Phase I safety, pharmacokinetic, and biomarker study of BIBF 1120, an oral triple tyrosine kinase inhibitor in patients with advanced solid tumors. Mol Cancer Ther 2010; 9: 2825-2833.). […] A total of 48 treatment cycles (26 cycles of therapy with nintedanib alone) had been administered over 33 months until disease progression on March, 2013 (FIG. 1). To identify mutations which are highly susceptible to therapy with nintedanib, next-generation sequencing panels were applied that cover both mutational hotspots in 22 genes related to lung and colon tumorigenesis using DNA (FIG. 4) as well as 72 major variants of ALK, RET, ROS1, and NTRK1 fusion transcripts using RNA extracted from non-small lung tissues obtained by transbronchial biopsy (FIG. 5). Multiplex genetic testing has identified CCDC6-RET fusion gene in tissue specimens for lung cancer diagnosis (FIG. 2), and no other actionable mutations were identified.
# [2] = preclinical studies, oral bioavailability; type: in vivo
# [3] = system: platelet-derived growth factor receptors (PDGFRs); assay: preclinical studies, inhibition of PDGFRs; type: biochemical
# [4] = system: xenograft models of human solid tumors; conditions: Hilberg et al. 2008; cited from earlier work
# [5] = biological target: VEGFR2 (Homo sapiens, UniProt P35968); conditions: in vitro; Hilberg et al. 2008; cited from earlier work
# [6] = system: advanced NSCLC; conditions: combination with docetaxel; predefined patients with adenocarcinoma tumor histology; Reck et al. 2014; cited from earlier work
# [7] = system: vascular endothelial growth factor receptors (VEGFRs); assay: preclinical studies, inhibition of VEGFRs; type: biochemical
# [8] = system: tumor vessel density; assay: tumor vessel density; conditions: in vivo
# [9] = system: fibroblast growth factor receptors (FGFRs); assay: preclinical studies, inhibition of FGFRs; type: biochemical
# [10] = system: endothelial- and smooth muscle cells and pericytes; assay: signalling in endothelial- and smooth muscle cells and pericytes; type: cell-based
# Chain of VEGFR2 (P35968 20-1356, species assumed): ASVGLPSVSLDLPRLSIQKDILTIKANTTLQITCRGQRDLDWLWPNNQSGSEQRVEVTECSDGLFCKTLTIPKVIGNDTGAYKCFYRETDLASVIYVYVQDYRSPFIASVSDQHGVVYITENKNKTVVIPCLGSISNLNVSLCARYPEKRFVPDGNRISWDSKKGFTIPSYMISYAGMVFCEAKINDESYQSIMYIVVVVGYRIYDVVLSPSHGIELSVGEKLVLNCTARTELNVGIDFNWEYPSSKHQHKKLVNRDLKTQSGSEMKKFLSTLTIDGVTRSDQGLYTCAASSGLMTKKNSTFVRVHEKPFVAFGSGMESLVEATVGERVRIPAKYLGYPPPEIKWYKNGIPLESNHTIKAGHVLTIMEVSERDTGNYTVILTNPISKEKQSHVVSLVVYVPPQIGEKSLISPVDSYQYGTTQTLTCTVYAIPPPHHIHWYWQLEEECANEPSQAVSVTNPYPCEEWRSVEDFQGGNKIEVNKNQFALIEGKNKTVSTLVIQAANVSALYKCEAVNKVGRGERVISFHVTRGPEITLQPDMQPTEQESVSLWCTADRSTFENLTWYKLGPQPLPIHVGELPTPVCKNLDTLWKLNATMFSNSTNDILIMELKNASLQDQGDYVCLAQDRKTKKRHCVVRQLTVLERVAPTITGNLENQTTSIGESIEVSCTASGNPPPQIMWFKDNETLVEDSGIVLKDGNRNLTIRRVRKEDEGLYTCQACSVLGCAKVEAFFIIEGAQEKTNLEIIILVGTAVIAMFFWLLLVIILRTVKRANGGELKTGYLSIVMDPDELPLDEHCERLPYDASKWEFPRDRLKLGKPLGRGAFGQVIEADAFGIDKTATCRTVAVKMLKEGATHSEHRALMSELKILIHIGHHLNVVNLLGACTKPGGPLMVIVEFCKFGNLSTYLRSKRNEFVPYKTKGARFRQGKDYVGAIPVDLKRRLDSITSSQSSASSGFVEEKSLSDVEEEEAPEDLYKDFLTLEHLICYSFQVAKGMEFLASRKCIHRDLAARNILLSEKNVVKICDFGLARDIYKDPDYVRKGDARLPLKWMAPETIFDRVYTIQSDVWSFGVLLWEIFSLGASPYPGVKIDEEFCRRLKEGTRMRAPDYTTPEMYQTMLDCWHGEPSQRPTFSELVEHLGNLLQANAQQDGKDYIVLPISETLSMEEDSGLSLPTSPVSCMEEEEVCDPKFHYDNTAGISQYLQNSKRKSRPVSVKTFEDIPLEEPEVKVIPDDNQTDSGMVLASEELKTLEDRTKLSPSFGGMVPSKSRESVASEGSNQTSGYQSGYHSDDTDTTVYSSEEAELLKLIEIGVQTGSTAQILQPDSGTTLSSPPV
Compound,adverse events leading to discontinuation ([1]; docetaxel discontinued after 22 cycles),oral bioavailability [2],inhibition of PDGFRs [3],tumor growth [4],blockade of VEGFR2 [5],"treatment time until disease progression ([1]; 48 treatment cycles, 26 of them nintedanib alone after docetaxel was stopped) [months]",response ([1]; nintedanib 150 mg twice daily plus docetaxel 75 mg/m^2 every 3 weeks),overall survival compared with docetaxel alone [6],inhibition of VEGFRs [7],tumor vessel density [8],inhibition of FGFRs [9],signalling in endothelial- and smooth muscle cells and pericytes [10]
"CC(=O)O[C@@]12CO[C@@H]1C[C@H](O)[C@@]1(C)C(=O)[C@H](O)C3=C(C)[C@@H](OC(=O)[C@H](O)[C@@H](NC(=O)OC(C)(C)C)c4ccccc4)C[C@@](O)([C@@H](OC(=O)c4ccccc4)[C@H]21)C3(C)C [docetaxel, reference compound]",lower extremity edema and fatigue,,,,,,,,,,,
"COC(=O)c1ccc2c(c1)NC(=O)/C2=C(\Nc1ccc(N(C)C(=O)CN2CCN(C)CC2)cc1)c1ccccc1 [nintedanib, 3-Z-[1-(4-(N-((4-methyl-piperazin-1-yl)-methylcarbonyl)-N-methyl-amino)-anilino)-1-phenyl-methylene]-6-methoxycarbonyl-2-indolinone]",,orally bioavailable,highly potent,delay or arrest of tumor growth,sustained blockade,33,radiographic response,significantly and clinically meaningful improved overall survival,highly potent,reduces tumor vessel density,highly potent,inhibits signalling
